The target in assay [1] is T1, β-kinase domain of the human insulin receptor (CKD) (Homo sapiens, UniProt P06213).
T1 construct: The complete β-kinase domain of the human insulin receptor (CKD); made in house
The assay can be described thus: 32P-cytoplasmic kinase domain (CKD) autophosphorylation assay. Particulars: 32P incorporated into CKD band, 10 minutes at room temperature, 50 μM ATP; test concentration not given. Format: biochemical. The procedure: ^32P-cytoplasmic Kinase Domain (CKD) Autophosphorylation Assay
The complete β-kinase domain of the human insulin receptor (CKD) was expressed in, and purified from, baculovirus. CKD (4.0 μg/ml), in a solution of 29 mM HEPES (pH 7.6), 0.05% Triton X-100, 10 mM MgCl2, 2 mM MnCl2 (50 μl final volume), was combined with 50 μM ATP, and 5 μCi ^32P-ATP (3000 Ci/mmol.). A test compound, or the vehicle (DMSO), was added to a final DMSO concentration of 1%. The mixture was incubated for 10 minutes at room temperature. The reaction was terminated by the addition of 10 μl of 200 mM EDTA. A 30 μl volume was removed, mixed with 5 μl of 6× Laemmeli sodium dodecyl sulfate (SDS) treatment buffer, and heated to 95° C. for 5 minutes. A 20 μl aliquot was then run on an SDS-PAGE gel. The radioactivity incorporated into the CKD band is quantified by phosphorimaging of the gel, or scintillation counting of the excised bands.
The potency of a compound for increasing phosphorylation is expressed as a percentage of the vehicle level.

In assay [2] the test system is 3T3 L1 fibroblasts differentiated to adipocytes. The assay can be described thus: Glucose transport activity (14C-2-deoxy-D-glucose uptake). Format: cell-based. The procedure: Glucose Transport Activity
3T3 L1 fibroblasts (ATCC) were grown in Dulbecco's modified Eagie's medium (DMEM) with 10% fetal bovine serum (FBS). The cells were plated at a density of 3×10^4 cells/well in 24-well plates. Two days after confluence was reached, the cells were treated for 3 days with […] isobutylmethylxanthine (IBMX), 1 μM dexamethasone, and 1.7 μM insulin. The cells were then transferred to DMEM with 10% fresh bovine serum with 1.7 μM insulin for 2 more days. The cells were maintained in DMEM with 10% FBS for an additional 4 days. Finally the cells were serum starved overnight in 0.1% bovine serum albumin (BSA) in DMEM prior to exposure to the test compounds.
The following day, the medium was replaced with 150 mM NaCl, 1.7 mM KCl, 0.9 mM CaCl2, K2HPO4 (pH 7.4) to which was added either the experimental compounds, or their vehicle (DMSO). Insulin or its vehicle (0.01% BSA) was diluted in the assay buffer (containing test compound or vehicle, respectively) to a final concentration of 5.6 nM. After incubation for 30 min at 37° C., 0.5 μCi/ml of ^14C-2-deoxy-D-glucose was added, and the incubation was continued for additional 30 min at 37° C. The cells were then washed 3 times with ice-cold PBS/20 mM glucose and lysed in 250 μl of lysis buffer (50 mM HEPES pH 7.6, 1% Triton X-100) for 30 min at room temperature. Radioactivity in the lysate was quantified by scintillation counting.
Once ^14C-2-deoxy-D-glucose is transported into the cell it is not released. Glucose transport is, therefore, proportional to the amount of radioactivity in the lysate. The concentration of compound necessary to produce an increase in glucose transport greater than the sum of the standard deviation of the vehicle control plus the largest standard deviation of a test sample (generally 150% of the vehicle control) was recorded as the EC (effective concentration) The results of the glucose transport activity assay are shown in Table 2,

Where [3] appears, read: concentration producing increase in glucose transport generally 150% of the vehicle control, insulin 5.6 nM, read-out: Glucose Transport EC (effective concentration).
Where [4] appears, read: Mus musculus, 3T3-L1, concentration producing increase in glucose transport generally 150% of the vehicle control, insulin 5.6 nM, read-out: Glucose Transport EC (effective concentration).
Setting [5] is: Mus musculus, 3T3-L1, no EC recorded, not tested above 3.2 μM, insulin 5.6 nM, read-out: Glucose Transport EC (effective concentration), cells printed NT.

Read-outs that look alike come from different tables or passages of the source.

T1 sequence (P06213 980-1382 limits assumed): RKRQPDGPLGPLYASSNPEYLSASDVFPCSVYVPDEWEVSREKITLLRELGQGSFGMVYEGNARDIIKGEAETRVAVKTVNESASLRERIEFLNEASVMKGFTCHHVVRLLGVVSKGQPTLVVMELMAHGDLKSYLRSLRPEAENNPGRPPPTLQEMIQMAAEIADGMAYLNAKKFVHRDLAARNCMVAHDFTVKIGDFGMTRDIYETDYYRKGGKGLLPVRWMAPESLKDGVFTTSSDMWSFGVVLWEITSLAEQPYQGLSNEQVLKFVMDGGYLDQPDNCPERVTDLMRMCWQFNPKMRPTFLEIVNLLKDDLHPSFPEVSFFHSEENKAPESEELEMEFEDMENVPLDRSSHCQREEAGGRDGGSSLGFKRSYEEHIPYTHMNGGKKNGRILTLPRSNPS

Regarding “3,5-bis[N-(6-sulfonaphthyl)carbamoyl] benzoic acid [Compound 5]”, in assay [1], the “CKD phosphorylation (percentage of the vehicle level)” value is 115.6%. Besides, the EC50 in assay [2] (setting [3]) was found to be 10 µM.
In the case of `O=C(O)c1ccc(NC(=O)c2cc(C(=O)Nc3ccc(C(=O)O)cc3)cc(C(=O)Nc3ccc(C(=O)O)cc3)c2)cc1` [Compound 1, 4-({3,5-bis[N-(4-carboxyphenyl)carbamoyl]phenyl}carbonylamino)benzoic acid], the “CKD phosphorylation (percentage of the vehicle level)” value in assay [1] is on record as 103.7%. In addition, the EC50 in assay [2] (setting [4]) was 3.2 µM.
On to `O=C(Nc1cccc2cc(S(=O)(=O)O)ccc12)c1cc(C(=O)Nc2cccc3cc(S(=O)(=O)O)ccc23)cc(C(=O)Nc2cccc3cc(S(=O)(=O)O)ccc23)c1` [Compound 2, 5-({3,5-bis[N-(6-sulfonaphthyl)carbamoyl]phenyl}carbonylamino)naphthalene-2-sulfonic acid], for which the “CKD phosphorylation (percentage of the vehicle level)” value in assay [1] is 136.8%. In assay [2] (setting [3]), the EC50 is 3.2 µM.
`O=C(Nc1ccc(S(=O)(=O)O)cc1)c1cc(C(=O)Nc2ccc(S(=O)(=O)O)cc2)cc(C(=O)Nc2ccc(S(=O)(=O)O)cc2)c1` [Compound 3, 4-({3,5-bis[N-(4-sulfophenyl)carbamoyl]phenyl}carbonylamino)benzenesulfonic acid]: in assay [1], the “CKD phosphorylation (percentage of the vehicle level)” value came out at 98.9%. The EC50 in assay [2] (setting [4]) is 3.2 µM.
For the compound `O=C(Nc1cccc2ccc(S(=O)(=O)[O-])cc12)c1cc(C(=O)Nc2cccc3ccc(S(=O)(=O)[O-])cc23)cc(C(=O)Nc2cccc3ccc(S(=O)(=O)[O-])cc23)c1.[Na+].[Na+].[Na+]` [Compound 4, 8-({3,5-bis[N-(7-sulfonaphthyl)carbamoyl]phenyl}carbonylamino)naphthalene-2-sulfonic acid], the “CKD phosphorylation (percentage of the vehicle level)” value in assay [1] amounted to 134.9%. In addition, the EC50 in assay [2] (Mus musculus, 3T3-L1, read-out: Glucose Transport EC (effective concentration)) was determined as 3.2 µM.
For `O=C(Nc1cccc2c(S(=O)(=O)O)cccc12)c1cc(C(=O)Nc2cccc3c(S(=O)(=O)O)cccc23)cc(C(=O)Nc2cccc3c(S(=O)(=O)O)cccc23)c1` [Compound 6, 5-({3,5-bis[N-(5-sulfonaphthyl)carbamoyl]phenyl}carbonylamino)naphthalene-sulfonic acid], the “CKD phosphorylation (percentage of the vehicle level)” value in assay [1] is on record as 122.7%. Moreover, in assay [2] (setting [3]), the EC50 was found to be 3.2 µM.
Take `O=C(Nc1ccc(S(=O)(=O)O)c2ccccc12)c1cc(C(=O)Nc2ccc(S(=O)(=O)O)c3ccccc23)cc(C(=O)Nc2ccc(S(=O)(=O)O)c3ccccc23)c1` [Compound 7, 4-({3,5-bis[N-(4-sulfonaphthyl)carbamoyl]pheny}carbonylamino)naphthalene-sulfonic acid]: the “CKD phosphorylation (percentage of the vehicle level)” value in assay [1] came to 114.1%. In assay [2] (setting [3]), the EC50 was found to be 3.2 µM.
Consider `O=C(Nc1ccccc1S(=O)(=O)O)c1cc(C(=O)Nc2ccccc2S(=O)(=O)O)cc(C(=O)Nc2ccccc2S(=O)(=O)O)c1` [Compound 8, 2-({3,5-bis[N-(2-sulfophenyl)carbamoyl]phenyl}carbonylamino)benzenesulfonic acid], for which, in assay [1], the “CKD phosphorylation (percentage of the vehicle level)” value was 113.2%. Also, in assay [2] (setting [4]), the EC50 is 3.2 µM.
Consider `O=C(Nc1ccc2ccccc2c1S(=O)(=O)O)c1cc(C(=O)Nc2ccc3ccccc3c2S(=O)(=O)O)cc(C(=O)Nc2ccc3ccccc3c2S(=O)(=O)O)c1` [Compound 9, 2-({3,5-bis[N-(1-sulfo(2-naphthyl))carbamoyl]phenyl}carbonylamino)naphthalene-sulfonic acid], for which, in assay [1], the “CKD phosphorylation (percentage of the vehicle level)” value is on record as 98.8%. The EC50 in assay [2] (no EC recorded, not tested above 3.2 μM, insulin 5.6 nM, read-out: Glucose Transport EC (effective concentration), cells printed NT) was greater than 3.2 µM.
In the case of `O=C(Nc1cccc(S(=O)(=O)O)c1)c1cc(C(=O)Nc2cccc(S(=O)(=O)O)c2)cc(C(=O)Nc2cccc(S(=O)(=O)O)c2)c1` [Compound 10, 3-({3,5-bis[N-(3-sulfophenyl)carbamoyl]phenyl}carbonylamino)benzenesulfonic acid], the “CKD phosphorylation (percentage of the vehicle level)” value in assay [1] stood at 92.0%. Besides, the EC50 in assay [2] (setting [4]) was found to be 3.2 µM.
Turning to `O=C(Nc1ccc2cc(S(=O)(=O)O)ccc2c1)c1cc(C(=O)Nc2ccc3cc(S(=O)(=O)O)ccc3c2)cc(C(=O)Nc2ccc3cc(S(=O)(=O)O)ccc3c2)c1` [Compound 11, 6-({3,5-bis[N-(6-sulfo(2-naphthyl))carbamoyl]phenyl}carbonylamino)naphthalene-2-sulfonic acid], the “CKD phosphorylation (percentage of the vehicle level)” value in assay [1] was determined as 148.2%. For the same compound, the EC50 in assay [2] (setting [5]) was greater than 3.2 µM.
For `O=C(Nc1ccc2c(S(=O)(=O)O)cccc2c1)c1cc(C(=O)Nc2ccc3c(S(=O)(=O)O)cccc3c2)cc(C(=O)Nc2ccc3c(S(=O)(=O)O)cccc3c2)c1` [Compound 12, 6-({3,5-bis[N-(5-sulfo(2-naphthyl))carbamoyl]phenyl}carbonylamino)naphthalene-sulfonic acid], in assay [1], the “CKD phosphorylation (percentage of the vehicle level)” value worked out at 136.6%. For the same compound, in assay [2] (setting [3]), the EC50 turned out to be 3.2 µM.
On to `O=C(Nc1ccc2ccc(S(=O)(=O)O)cc2c1)c1cc(C(=O)Nc2ccc3ccc(S(=O)(=O)O)cc3c2)cc(C(=O)Nc2ccc3ccc(S(=O)(=O)O)cc3c2)c1` [Compound 13, 7-({3,5-bis[N-(7-sulfo(2-naphthyl))carbamoyl]phenyl}carbonylamino)naphthalene-2-sulfonic acid], for which the “CKD phosphorylation (percentage of the vehicle level)” value in assay [1] is on record as 125.5%. In addition, the EC50 in assay [2] (setting [5]) was greater than 3.2 µM.
For `O=C(Nc1ccccc1C(=O)O)c1cc(C(=O)Nc2ccccc2C(=O)O)cc(C(=O)Nc2ccccc2C(=O)O)c1` [Compound 14, 2-({3,5-bis[N-(2-carboxyphenyl)carbamoyl]phenyl}carbonylamino)benzoic acid], the “CKD phosphorylation (percentage of the vehicle level)” value in assay [1] is 105.3%. Besides, the EC50 in assay [2] (setting [5]) was greater than 3.2 µM.
`O=C(Nc1cccc2cccc(S(=O)(=O)O)c12)c1cc(C(=O)Nc2cccc3cccc(S(=O)(=O)O)c23)cc(C(=O)Nc2cccc3cccc(S(=O)(=O)O)c23)c1` [Compound 15, 8-({3,5-bis[N-(8-sulfonaphthyl)carbamoyl]phenyl}carbonylamino)naphthalene-sulfonic acid]: the “CKD phosphorylation (percentage of the vehicle level)” value in assay [1] was determined as 156.0%. Also, the EC50 in assay [2] (setting [3]) worked out at 3.2 µM.
On to `COC(=O)c1cc(NC(=O)c2cc(C(=O)Nc3cc(C(=O)OC)cc(C(=O)OC)c3)cc(C(=O)Nc3cc(C(=O)OC)cc(C(=O)OC)c3)c2)cc(C(=O)OC)c1` [Compound 16, methyl 3-[(3,5-bis{N-[3,5-bis(methoxycarbonyl)phenyl]carbamoyl}phenyl)-carbonylamino]-5-(methoxycarbonyl)benzoate], for which the “CKD phosphorylation (percentage of the vehicle level)” value in assay [1] stood at 83.7%. Also, in assay [2] (setting [4]), the EC50 was determined as 1.6 µM.
As to `O=C(O)c1ccc(CNC(=O)c2cc(C(=O)NCc3ccc(C(=O)O)cc3)cc(C(=O)NCc3ccc(C(=O)O)cc3)c2)cc1` [Compound 17, 4-{[(3,5-bis{N-[(4-carboxyphenyl)methyl]carbamoyl}phenyl)carbonylamino]-methyl}benzoic acid], in assay [1], the “CKD phosphorylation (percentage of the vehicle level)” value is listed as 90.4%. In addition, the EC50 in assay [2] (setting [4]) worked out at 3.2 µM.
For `COC(=O)c1cccc(NC(=O)c2cc(C(=O)Nc3cccc(C(=O)OC)c3)cc(C(=O)Nc3cccc(C(=O)OC)c3)c2)c1` [Compound 18, methyl 3-[(3,5-bis{N-[3-(methoxycarbonyl)phenyl]carbamoyl}phenyl)carbonyl-amino]benzoate], in that order: 94.54% and 3.2 µM.
Regarding `COC(=O)c1ccc(CNC(=O)c2cc(C(=O)NCc3ccc(C(=O)OC)cc3)cc(C(=O)NCc3ccc(C(=O)OC)cc3)c2)cc1` [Compound 19, methyl 4-({[3,5-bis(N-{[4-(methoxycarbonyl)phenyl]methyl}carbamoyl)phenyl]-carbonylamino}methyl)benzoate], the “CKD phosphorylation (percentage of the vehicle level)” value in assay [1] is given as 104.0%. Moreover, the EC50 in assay [2] (setting [5]) is greater than 3.2 µM.

The record behind these values is patent US6600069B2, “Benzene tricarboxylic acid derivatives as insulin receptor activators” (Telik, Inc., priority 2000, dated 2003).
